From patent publication US20230278958A1 (Merck Patent GmbH, priority 2020, published 2023)

Assays:
YAP-TEAD interaction = assay: SK-HEP-1 reporter assay (8x TEAD responsive elements driving NanoLuc luciferase); assay type: cell-based; settings: Homo sapiens, SK-HEP1; SK-HEP-1 TEAD-NanoLuc reporter cells, 24 hour incubation, luciferase readout
Description: To identify inhibitors of YAP-TEAD interaction, 8× TEAD responsive elements driving the NanoLuc® luciferase gene were stably integrated into SK-HEP-1 cells (ECACC #: 91091816).
For the assay, cells were treated in duplicates with the test compounds in a 10-point dose, with the top concentration starting at 30 μM (final concentration in assay). After a 24 hour incubation at 37° C., 95% rH, and 5% CO2, a luciferase substrate/lysis reagent mix (NanoGlo™, Promega) was added to the cells, allowing the quantification of cellular luciferase activity.
Cell Media: The cells were cultured in the following media: MEM, +10% FBS, +1× GlutaMAX, +1 mM Sodium-Pyruvate, +100 μM Non-essential amino acids, +0.1 mg/ml Hygromycin. The media used for the assay was: MEM (w/o Phenol Red), +10% FBS, +1× GlutaMAX, +1 mM Sodium-Pyruvate, +100 μM Non-essential amino acids, +0.5% Pen/Strep
(§1) Reagents: The reagents used are listed below:
(§2) Cell culture: The cells were examined using an inverted microscope to check for health and cell density. To dissociate adherent cells, the monolayer of cells was washed once with pre-warmed PBS. After removing the PBS, 3 ml pre-warmed Accutase® was added to a F75 flask, dispersed evenly and the flask was allowed to sit in incubator for ˜4-5 minutes.
(§3) When a single cell suspension was obtained, 7 ml of prewarmed growth media was added and resuspended with the cells. The cell suspension was transferred to a sterile 15 ml conical centrifuge tube, and spun for 5 min at 300×g, RT. The supernatant was discarded and the pellet was resuspended in 10 ml of pre-warmed growth media.
(§4) The total cell count was determined, and 20 μl of the desired cell number was added to each well of a 384 well plate using a Multidrop Combi. The plates were then incubated for 24 hours at 37° C., 95% rH, and 5% CO2.
(§5) Compound treatment: 24 hours after seeding, the cells were treated with compounds.
(§6) A 1:333 dilution of compounds, diluted in DMSO, was made to get a final concentration of 0.3% DMSO per well. To transfer the compounds to the assay plate, 120 nl was shot from Labcyte low dead volume plates to the cell plates containing 20 μl media/well with the ECHO 555 liquid handling system.
(§7) After treatment, the cells were fed with 20 μl fresh pre-warmed assay media using a Multidrop combi.
The assay plates were then incubated for another 24 h at 37° C., 95% rH, and 5% CO2.
Luciferase readout: 24 h after treatment, the plates were taken out of the incubator and were allowed to equilibrate to RT. 30 μl of NanoGlo® reagent was added to the plates in the dark. Plates were shaken for 20 min on a Teleshake (˜1500 rpm) in the dark. The luminescence was then measured using an EnVision microplate reader. The IC50 values were generated using Genedata Screener®.
Experimental data in SK-HEP-1 reporter assay of the compounds shown in Table 1 are shown in Table 2 below and classified in the following groups: […]

NCI-H226 cells = assay: Viability assay in NCI-H226 (Yap-dependent) cells, CyQUANT; assay type: cell-based; settings: Homo sapiens, 96 hour incubation
Description: (§8) The ability of YAP-TEAD inhibitors to inhibit tumor cell growth was evaluated using two different cell lines: NCI-H226, which is a YAP dependent cell line, and SW620 cells, where YAP and TAZ were knocked out using CRISPR to generate a YAP independent cell line.
(§9) For the assay, cells were treated in duplicates with the test compounds in a 10-point dose, 1:3 dilution steps, with the top concentration starting at 30 μM (final concentration in assay). After a 96 hour incubation at 37° C., 95% rH, and 5% CO2, a cell-permeant DNA-binding dye that stains only healthy cells (CyQUANT®, Promega) was added to the cells, allowing the quantification of cell viability.
(§10) Cell Media: The NCI-H226 cells were cultured in the following media: RPMI 1640, +10% FBS, +1× GlutaMAX, +10 mM HEPES, +0.5% Pen/Strep. The SW620-KO cells were cultured in the following media: DMEM/F-12, +10% FBS, +1× GlutaMAX, +10 mM HEPES, +0.5% Pen/Strep.
as §1
as §2, with “health,” for “health and”, “density, etc.” for “density.”, “Accutase” for “Accutase®”
as §3, §4, §5, §6, §7
(§11) The assay plates were then incubated for 96 h at 37° C., 95% rH, and 5% CO2.
(§12) 96h after treatment 30 μl of CyQuant® reagent was added to the assay plates using a Multidrop combi in the dark. The plates were then incubated for 1 hour at 37° C., 95% rH and 5% CO2. Thereafter, the assay plates were removed from the incubator and allowed to equilibrate to RT for 30 min in the dark without lid. Finally, they were measured using an EnVision microplate reader with a FITC bottom read program.
(§13) Experimental data in the Viability assay of the compounds shown in Table 1 are shown in Table 3 below and classified in the following groups: […]

SW620 Yap KO cells = assay: Viability assay in SW620 Yap KO (Yap independent) cells, CyQUANT; assay type: cell-based; settings: Homo sapiens, SW-620, SW620 YAP/TAZ knock-out (YAP independent) cells, 96 hour incubation
Description: as §8, §9, §10, §1
as §2, with “health,” for “health and”, “density, etc.” for “density.”, “Accutase” for “Accutase®”
as §3, §4, §5, §6, §7, §11, §12, §13

IC50 (YAP-TEAD interaction)	IC50 (NCI-H226 cells)	IC50 (SW620 Yap KO cells)	melting point	Structure (SMILES)
100 to 1000 nM	0.1 to 1 µM	> 10 µM		O=C(O)c1ccc2c(c1)c1cc(Cc3ccccc3)ccc1n2-c1ccc(C(F)(F)F)cc1 [Compound 1, 6-benzyl-9-[4-(trifluoromethyl)phenyl]-9H-carbazole-3-carboxylic acid]
1 to 10 nM	0.001 to 0.1 µM	> 10 µM		Cc1cccc2c1c1cc(C(=O)O)ccc1n2-c1ccc(C(F)(F)F)cc1 [Compound 6, 5-methyl-9-[4-(trifluoromethyl)phenyl]-9H-carbazole-3-carboxylic acid]
10 to 100 nM	0.1 to 1 µM	> 10 µM		O=C(O)c1ccc2c(c1)c1ccccc1n2-c1ccc(C(F)(F)F)cc1 [Compound 8, 9-[4-(trifluoromethyl)phenyl]-9H-carbazole-3-carboxylic acid]
1 to 10 nM	0.001 to 0.1 µM	> 10 µM		Cc1ccc2c(c1)c1cc(C(=O)O)ccc1n2-c1ccc(C(F)(F)F)cc1 [Compound 10, 6-methyl-9-[4-(trifluoromethyl)phenyl]-9H-carbazole-3-carboxylic acid]
10 to 100 nM	0.1 to 1 µM		202 to 204 °C	O=C(O)c1ccc2c(c1)c1cc(F)ccc1n2-c1ccc(C(F)(F)F)cc1 [Compound 11, 6-fluoro-9-[4-(trifluoromethyl)phenyl]-9H-carbazole-3-carboxylic acid]
10 to 100 nM	0.1 to 1 µM		271 to 272 °C	CC(C)c1ccc2c(c1)c1cc(C(=O)O)ccc1n2-c1ccc(C(F)(F)F)cc1 [Compound 13, 6-(propan-2-yl)-9-[4-(trifluoromethyl)phenyl]-9H-carbazole-3-carboxylic acid]
1 to 10 nM	0.1 to 1 µM		292 to 294 °C	O=C(O)c1ccc2c(c1)c1cc(C(F)(F)F)ccc1n2-c1ccc(C(F)(F)F)cc1 [Compound 14, 6-(trifluoromethyl)-9-[4-(trifluoromethyl)phenyl]-9H-carbazole-3-carboxylic acid]
10 to 100 nM	0.001 to 0.1 µM		160 to 162 °C	O=C(O)c1ccc2c(c1)c1nc(C(F)(F)F)ccc1n2-c1ccc(C(F)(F)F)cc1 [Compound 16, 2-(trifluoromethyl)-5-[4-(trifluoromethyl)phenyl]-5H-pyrido[3,2-b]indole-8-carboxylic acid]
1 to 10 nM	0.001 to 0.1 µM		300 °C	Cc1ccc2c(n1)c1cc(C(=O)O)ccc1n2-c1ccc(C(F)(F)F)cc1 [Compound 17, 2-methyl-5-[4-(trifluoromethyl)phenyl]-5H-pyrido[3,2-b]indole-8-carboxylic acid]
10 to 100 nM	0.1 to 1 µM		300 °C	O=C(O)c1ccc2c(c1)c1nc(F)ccc1n2-c1ccc(C(F)(F)F)cc1 [Compound 18, 2-fluoro-5-[4-(trifluoromethyl)phenyl]-5H-pyrido[3,2-b]indole-8-carboxylic acid]
1 to 10 nM	0.1 to 1 µM		245 to 247 °C	COc1ccc2c(n1)c1cc(C(=O)O)ccc1n2-c1ccc(C(F)(F)F)cc1 [Compound 19, 2-methoxy-5-[4-(trifluoromethyl)phenyl]-5H-pyrido[3,2-b]indole-8-carboxylic acid]
10 to 100 nM	1 to 10 µM		250 to 252 °C	Cc1ccc2c3cc(C(=O)O)ccc3n(-c3ccc(C(F)(F)F)cc3)c2c1 [Compound 20, 7-methyl-9-[4-(trifluoromethyl)phenyl]-9H-carbazole-3-carboxylic acid]
1 to 10 nM	0.001 to 0.1 µM	1 to 10 µM	184 to 186 °C	CNC(=O)c1ccc2c(c1)c1cc(C)ccc1n2-c1ccc(C(F)(F)F)cc1 [Compound 21, N,6-dimethyl-9-[4-(trifluoromethyl)phenyl]-9H-carbazole-3-carboxamide]
10 to 100 nM	0.001 to 0.1 µM		270 to 272 °C	CNC(=O)c1ccc2c(c1)c1cc(F)ccc1n2-c1ccc(C(F)(F)F)cc1 [Compound 23, 6-fluoro-N-methyl-9-[4-(trifluoromethyl)phenyl]-9H-carbazole-3-carboxamide]
100 to 1000 nM			250 to 252 °C	CNC(=O)c1ccc2c(c1)c1nc(F)ccc1n2-c1ccc(C(F)(F)F)cc1 [Compound 25, 2-fluoro-N-methyl-5-[4-(trifluoromethyl)phenyl]-5H-pyrido[3,2-b]indole-8-carboxamide]
10 to 100 nM	0.1 to 1 µM		230 to 232 °C	CNC(=O)c1ccc2c(c1)c1ccc(C)cc1n2-c1ccc(C(F)(F)F)cc1 [Compound 26, N,7-dimethyl-9-[4-(trifluoromethyl)phenyl]-9H-carbazole-3-carboxamide]
100 to 1000 nM	> 10 µM		225 to 227 °C	CNC(=O)c1ccc2c(c1)c1nc(C(F)(F)F)ccc1n2-c1ccc(C(F)(F)F)cc1 [Compound 29, N-methyl-2-(trifluoromethyl)-5-[4-(trifluoromethyl)phenyl]-5H-pyrido[3,2-b]indole-8-carboxamide]
10 to 100 nM	1 to 10 µM		242 to 244 °C	CNC(=O)c1ccc2c(c1)c1cc(C(F)(F)F)ccc1n2-c1ccc(C(F)(F)F)cc1 [Compound 30, N-methyl-6-(trifluoromethyl)-9-[4-(trifluoromethyl)phenyl]-9H-carbazole-3-carboxamide]
10 to 100 nM	0.001 to 0.1 µM		270 to 272 °C	CNC(=O)c1ccc2c(c1)c1cc(C#N)ccc1n2-c1ccc(C(F)(F)F)cc1 [Compound 33, 6-cyano-N-methyl-9-[4-(trifluoromethyl)phenyl]-9H-carbazole-3-carboxamide]
100 to 1000 nM			195 to 200 °C	O=C(O)c1cc2c3cccnc3n(Cc3ccc(C(F)(F)F)cc3)c2cn1 [Compound 34, 8-{[4-(trifluoromethyl)phenyl]methyl}-5,8,10-triazatricyclo[7.4.0.0^2,^7]trideca-1(9),2,4,6,10,12-hexaene-4-carboxylic acid]
10 to 100 nM	0.1 to 1 µM		185 to 188 °C	O=C(O)c1cc2c3cccnc3n(-c3ccc(C(F)(F)F)cc3)c2cn1 [Compound 35, 8-[4-(trifluoromethyl)phenyl]-5,8,10-triazatricyclo[7.4.0.0^2,^7]trideca-1(9),2,4,6,10,12-hexaene-4-carboxylic acid]
